Legend:
Assay type in all cases: cell-based
Settings in all cases: 5 mg HMO/ml, compared to control cultures
[1] = test system: GAL3ST2 expression in human LS174T cells; assay: Example 3: goblet cell gene expression by quantitative RT-PCR, GAL3ST2
Experimental: (§1) 2′-FL and LNnT are tested with respect to their ability to induce MUC2, TFF3, EIMβ, CHST5, and GAL3ST2 expression in the human LS174T cell culture model of goblet cells. The human LS174T cell line is obtained from the American Type Culture Collection (ATCC). LS174T cells are maintained in minimum essential medium (MEM) supplemented according to instructions at 37° C. in air containing 5% of CO2. 2′-FL and LNnT are dissolved in cell culture grade water to the required concentration. The LS174T cells are treated with the HMO solution containing 0 or 5 mg HMO/ml. The LS174T cells are collected and suspended in Trizol reagent and total RNA is isolated using an RNA analysis kit (Qiagen) according to the manufacturer's instructions and the RNA isolates are quantified using Nanodrop analysis (Thermo Fisher Scientific). RNA isolates are reverse transcribed using a high capacity cDNA Reverse Transcription Kit (Applied Biosystems) to create cDNA, which is then used to assess gene expression via quantitative RT-PCR. For the quantitative RT-PCR, specific TaqMAN gene expression assays are obtained from Applied Biosystems, which include expression assays for MUC2, TFF3, CHST5 and GAL3ST2. Quantitative real-time PCR is performed using TaqMAN PCR Master Mix (Applied Biosystems). […] The results are analysed using SDS 2.3 software and calculated by delta Ct method. […]

[2] = test system: MUC2 expression in human LS174T cells; assay: Example 3: goblet cell gene expression by quantitative RT-PCR, MUC2
Experimental: as §1

[3] = test system: TFF3 expression in human LS174T cells; assay: Example 3: goblet cell gene expression by quantitative RT-PCR, TFF3
Experimental: as §1

[4] = test system: CHST5 expression in human LS174T cells; assay: Example 3: goblet cell gene expression by quantitative RT-PCR, CHST5
Experimental: as §1

CC(=O)N[C@H]1[C@H](O[C@H]2[C@@H](O)[C@@H](CO)O[C@@H](O[C@H]3[C@H](O)[C@@H](O)C(O)O[C@@H]3CO)[C@@H]2O)O[C@H](CO)[C@@H](O[C@@H]2O[C@H](CO)[C@H](O)[C@H](O)[C@H]2O)[C@@H]1O (mixture of isomers) [LNnT, lacto-N-neotetraose]
GAL3ST2 gene expression [1]: lack of induction | MUC2 gene expression [2]: increases the expression | TFF3 gene expression [3]: increases the expression | CHST5 gene expression [4]: minimal induction

Reference: patent US20220233561A1, “HUMAN MILK OLIGOSACCHARIDES FOR USE IN THE TREATMENT OF SYMPTOMS IN A PATIENT SUFFERING FROM NON-COELIAC WHEAT AND / OR GLUTEN SENSITIVITY” (GLYCOM A/S, priority 2016, published 2022)
